The values below are quoted from earlier work in US12357614B2, “L-ergothioneine-containing composition” (NAGASE & CO., LTD., priority 2020, dated 2025).

Data set [1] relates to mouse bone marrow-derived macrophages. As to conditions: 10 mM EGT, toll-like receptor ligand stimulation.
The test system of a further data set is Escherichia coli. To be noted: EGT at 5 mM and 50 mM.
The test system of the next data set is OT-II CD4^+ T cells. As to conditions: 30 mM EGT, co-culture with F4/80 macrophages.

For `C[N+](C)(C)[C@@H](Cc1c[nH]c(=S)[nH]1)C(=O)[O-]` [EGT, N,N,N-trimethyl-L-2-thiohistidine], the “production of cytokines (IL-6, IL-12p40, IL-1β, IL-10)” value in data set [1] was “promoted”. Also, in the data set with Escherichia coli, the “growth of Escherichia coli” value is “suppresses the growth of Escherichia coli”. The “Th17 polarization of OT-II CD4^+ T cells” value with OT-II CD4^+ T cells is recorded as “promoted”.
